20 molecules from ChEMBL document CHEMBL1149399, “Dual inhibitors of thymidylate synthase and dihydrofolate reductase as antitumor agents: design, synthesis, and biological evaluation of classical and nonclassical pyrrolo[2,3-d]pyrimidine antifolates(1)” (J Med Chem, 2006) can be followed below.

Some results are limits rather than exact numbers.

Series [1] concerns CCRF-CEM. Nature of the series: Protection against growth of CCRF-CEM cells in presence of 5 uM Thymidine, 10 uM Deoxycytidine and 10 uM Hypoxanthine, relative to control. The series is classed as functional, Homo sapiens.
Series [2] deals with CCRF-CEM. Nature of the series: Protection against growth inhibition of CCRF-CEM cells in presence of 0.1 uM of Leucovorin at concentrations that inhibited the growth by […]%. The series is classed as functional, Homo sapiens. Also on record: scale not given: the % may be the effect or the level left.
In series [3] the test system is CCRF-CEM. Nature of the series: Protection against growth of CCRF-CEM cells in presence of 10 uM Hypoxanthine, relative to control. Format: functional, Homo sapiens.
For series [4], the system named is CCRF-CEM. The series can be described thus: Protection against growth of CCRF-CEM cells in presence of 5 uM Thymidine and 10 uM Deoxycytidine, relative to control. Format: functional, Homo sapiens.
Series [5] concerns CCRF-CEM. The series can be described thus: Protection against growth of CCRF-CEM cells in presence of 5 uM Thymidine, relative to control. Format: functional, Homo sapiens.
In series [6] the test system is CCRF-CEM. Nature of the series: Protection against growth of CCRF-CEM cells in presence of 10 uM Hypoxanthine and 10 uM Deoxycytidine, relative to control. The series is classed as functional, Homo sapiens.
In another series the test system is R2-CCRF-CEM. Nature of the series: Inhibition of growth in MTX-resistant CCRF-CEM cell line, R2 cells. The series is classed as functional, cell-based. The settings on record: Homo sapiens.
The test system of a further series is R1-CCRF-CEM. Nature of the series: Inhibition of growth in MTX-resistant CCRF-CEM cell line, R1 cells. Format: functional, cell-based. The note with it: Homo sapiens.
The subject of series [7] is CCRF-CEM. Nature of the series: Protection against growth of CCRF-CEM cells in presence of 10 uM Deoxycytidine, relative to control. Format: functional, Homo sapiens.
In series [8] the target is T1, Thymidylate synthase (Homo sapiens, UniProt P04818). Nature of the series: Inhibition of recombinant human TS at >3.1*10-5 nM.
Target sequence in this assay (P04818 2-313 limits assumed): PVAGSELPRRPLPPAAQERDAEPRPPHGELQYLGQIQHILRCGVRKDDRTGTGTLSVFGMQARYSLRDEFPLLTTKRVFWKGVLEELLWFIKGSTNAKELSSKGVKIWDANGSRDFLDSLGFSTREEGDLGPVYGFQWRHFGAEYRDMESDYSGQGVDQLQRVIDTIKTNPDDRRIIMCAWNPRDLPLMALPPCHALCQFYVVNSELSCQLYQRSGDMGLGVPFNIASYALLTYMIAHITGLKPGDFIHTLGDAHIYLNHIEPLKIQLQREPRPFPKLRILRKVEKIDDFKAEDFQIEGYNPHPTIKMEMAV
Series [9] has as its target Thymidylate synthase (Escherichia coli) (UniProt C3SWJ7). The series can be described thus: Inhibition of TS from Escherichia coli at >3.1*10-5 nM.
Series [10] concerns the target T1, Thymidylate synthase.
Target sequence in this assay (P04818 whole entry): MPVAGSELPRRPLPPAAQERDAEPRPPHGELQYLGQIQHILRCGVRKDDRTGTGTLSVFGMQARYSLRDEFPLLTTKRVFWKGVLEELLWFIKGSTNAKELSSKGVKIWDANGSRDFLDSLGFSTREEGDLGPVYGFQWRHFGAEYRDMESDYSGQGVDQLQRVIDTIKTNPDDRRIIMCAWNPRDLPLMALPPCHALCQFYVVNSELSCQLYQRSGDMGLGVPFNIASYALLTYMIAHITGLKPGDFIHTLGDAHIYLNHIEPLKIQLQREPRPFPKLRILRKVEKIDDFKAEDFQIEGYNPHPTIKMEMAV
For series [11], the target named is Thymidylate synthase (Escherichia coli) (UniProt C3SWJ7). The series can be described thus: Inhibition of TS from Escherichia coli at >2.6*10-5 nM.
Thymidylate synthase (Escherichia coli), sequence (C3SWJ7 1-264): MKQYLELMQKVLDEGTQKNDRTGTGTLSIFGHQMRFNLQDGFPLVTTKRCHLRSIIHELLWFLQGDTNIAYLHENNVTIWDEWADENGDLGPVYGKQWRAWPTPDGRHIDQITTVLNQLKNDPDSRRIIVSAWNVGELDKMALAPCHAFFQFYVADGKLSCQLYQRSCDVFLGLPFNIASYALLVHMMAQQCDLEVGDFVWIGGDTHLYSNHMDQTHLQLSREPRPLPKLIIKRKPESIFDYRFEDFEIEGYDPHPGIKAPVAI
The target of series [12] is T2, Dihydrofolate reductase (Homo sapiens) (UniProt P00374).
T2 sequence (whole entry): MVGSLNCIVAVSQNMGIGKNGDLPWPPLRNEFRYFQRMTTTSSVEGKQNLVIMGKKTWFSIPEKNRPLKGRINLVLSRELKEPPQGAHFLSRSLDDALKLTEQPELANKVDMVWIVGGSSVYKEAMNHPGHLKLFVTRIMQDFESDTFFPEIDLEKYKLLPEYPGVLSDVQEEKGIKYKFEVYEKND
The series can be described thus: Inhibition of recombinant human DHFR at >31 uM.

Series [13] has as its target Thymidylate synthase (Escherichia coli) (UniProt C3SWJ7). The series can be described thus: Inhibition of TS from Escherichia coli at >2.7*10-5 nM.
The target of series [14] is T2, Dihydrofolate reductase (Homo sapiens). The series can be described thus: Inhibition of recombinant human DHFR at >32 uM.
Series [15] deals with Thymidylate synthase (Escherichia coli) (UniProt C3SWJ7). The series can be described thus: Inhibition of TS from Escherichia coli at >3.2*10-5 nM.
Series [16] has the same target. The series can be described thus: Inhibition of TS from Escherichia coli at >3.0*10-5 nM.
Series [17] has as its system CCRF-CEM. The series can be described thus: Protection against growth inhibition of CCRF-CEM cells in presence of 10 uM of Leucovorin at concentrations that inhibited the growth by 95%. Format: functional, Homo sapiens. Also on record: scale not given: the % may be the effect or the level left.
For a further series, the target named is T3, Dihydrofolate reductase (Homo sapiens, UniProt P00374).
T3 sequence (P00374 whole entry): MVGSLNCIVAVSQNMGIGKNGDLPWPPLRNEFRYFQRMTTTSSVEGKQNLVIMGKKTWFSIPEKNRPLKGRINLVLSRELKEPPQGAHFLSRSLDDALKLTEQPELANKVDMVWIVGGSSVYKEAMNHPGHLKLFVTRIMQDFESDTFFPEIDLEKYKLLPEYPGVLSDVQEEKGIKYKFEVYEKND

Series [18] concerns CCRF-CEM. Nature of the series: Inhibition of growth in MTX-resistant CCRF-CEM cell line, R30dm cells. Format: functional, cell-based. The note with it: Homo sapiens.
In series [19] the target is Thymidylate synthase (Escherichia coli, UniProt C3SWJ7). Nature of the series: Inhibition of TS from Escherichia coli.
Thymidylate synthase (Escherichia coli, UniProt C3SWJ7), sequence (C3SWJ7 whole entry): as the sequence (C3SWJ7 1-264) above
Series [20] has as its system CCRF-CEM. The series can be described thus: Inhibition of growth in CCRF-CEM cells. Format: functional, cell-based. The note with it: Homo sapiens.
The nature of series [21]: Inhibition of DHFR from Escherichia coli.
The target of series [22] is T1, Thymidylate synthase. The series can be described thus: Inhibition of recombinant human TS at >3.2*10-5 nM.
Target sequence in this assay (P04818 2-313 limits assumed): as the sequence (P04818 2-313 limits assumed) above
The target in series [23] is Thymidylate synthase (Escherichia coli) (UniProt C3SWJ7). Nature of the series: Inhibition of TS from Escherichia coli at >2.3*10-5 nM.
Series [24] deals with T2, Dihydrofolate reductase (Homo sapiens). Nature of the series: Inhibition of recombinant human DHFR at >29 uM.
Series [25] addresses Thymidylate synthase (Escherichia coli) (UniProt C3SWJ7). Nature of the series: Inhibition of TS from Escherichia coli at >2.0*10-5 nM.
For series [26], the target named is T1, Thymidylate synthase. Nature of the series: Inhibition of recombinant human TS at >2.2*10-5 nM.
Target sequence in this assay (P04818 2-313 limits assumed): as above
Series [27] has as its target Thymidylate synthase (Escherichia coli) (UniProt C3SWJ7). The series can be described thus: Inhibition of TS from Escherichia coli at >2.2*10-5 nM.
The target in series [28] is T2, Dihydrofolate reductase (Homo sapiens). The series can be described thus: Inhibition of recombinant human DHFR at >26 uM.
Substrate in series [29]: CCc1[nH]c2nc(N)nc(O)c2c1Sc1ccc(C(=O)N[C@@H](CCC(=O)O)C(=O)O)cc1
Nature of the series: Binding with human cytosolic FPGS at <= 100 uM.

In general, EC50 refers to the midpoint of the concentration-response curve. In the case of `CN(Cc1cnc2nc(N)nc(N)c2n1)c1ccc(C(=O)N[C@@H](CCC(=O)O)C(=O)O)cc1` [METHOTREXATE], the Activity with CCRF-CEM [1] came to 99%; with CCRF-CEM [2], 10%; in the series on CCRF-CEM [3] it was 101%; in the series with CCRF-CEM [4], 10%; in the series with CCRF-CEM [5] it was 44%; in the series with CCRF-CEM [6], 11%. Besides, in the series on CCRF-CEM [7], the Activity was 10%. Moreover, the values for the concentration giving a half-maximal response (EC50) in the series with R2-CCRF-CEM and in the series on R1-CCRF-CEM were 1700 nM and 565 nM, respectively.
Broadly, the inhibition is how much of the control response was suppressed. With `CCc1[nH]c2nc(N)nc(O)c2c1Sc1ccc(Cl)cc1`, the inhibition turned out to be 25% at Thymidylate synthase [8] and 27% in series [9].
In general, IC50 refers to the concentration needed to halve the response being measured. The molecule `CCc1[nH]c2nc(N)nc(O)c2c1Sc1ccc2ccccc2c1` had a 50% inhibitory concentration (IC50) on Thymidylate synthase [10] of 5600 nM.
As for `CCc1[nH]c2nc(N)nc(O)c2c1Sc1c(C)cccc1C`, the inhibition in [11] and in [12] was 0% in each case.
With `CCc1[nH]c2nc(N)nc(O)c2c1Sc1ccc(F)cc1`, at Thymidylate synthase [10], 2700 nM corresponded to half-maximal inhibition (IC50). In addition, the inhibition in [13] and in [14] was 0% in each case.
Consider `CCc1[nH]c2nc(N)nc(O)c2c1Sc1ccc(OC)cc1`, for which the inhibition in series [15] is 22%. In addition, the half-maximal inhibitory concentration (IC50) on Thymidylate synthase [10] turned out to be 16000 nM.
Take `CCc1[nH]c2nc(N)[nH]c(=O)c2c1Sc1c(C)cccc1C`: on Thymidylate synthase [10], it took 26000 nM to reach half-maximal inhibition (IC50).
`CCc1[nH]c2nc(N)nc(O)c2c1Sc1cccc2ccccc12` gave an inhibition in series [16] of 15%.
The molecule `CCc1[nH]c2nc(N)[nH]c(=O)c2c1Sc1ccc(Cl)c(Cl)c1` had an IC50 against Thymidylate synthase [10] of 230 nM.
For the molecule `CCc1[nH]c2nc(N)nc(O)c2c1Sc1ccc(C(=O)N[C@@H](CCC(=O)O)C(=O)O)cc1`, the Activity with CCRF-CEM [1] is 105%; in the series on CCRF-CEM [2], 95%; in the series on CCRF-CEM [17], 75%; with CCRF-CEM [3], 16%; in the series with CCRF-CEM [4] it was 106%; with CCRF-CEM [5], 106%. For the same molecule, the results for the Activity in the series with CCRF-CEM [6] and in the series on CCRF-CEM [7] were 16% and 18%, respectively. The half-inhibitory concentration (IC50) at Thymidylate synthase [10] was 90 nM; against Dihydrofolate reductase, 420 nM; at Thymidylate synthase [19] it was 540 nM; in series [21], > 21000 nM. The EC50 in the series on CCRF-CEM [18] is 2900 nM; with CCRF-CEM [20], 2700 nM; in the series on R2-CCRF-CEM it was 12500 nM; with R1-CCRF-CEM, 7050 nM.
For the molecule `CCc1[nH]c2nc(N)nc(O)c2c1Sc1cccc(OC)c1`, the inhibition in [15] worked out at 5%; on Thymidylate synthase [22] it was 15%.
Turning to `CCc1[nH]c2nc(N)nc(O)c2c1Sc1cccc(Cl)c1`, 2600 nM corresponded to half-maximal inhibition against Thymidylate synthase [10] (IC50). Further, the inhibition in series [11] is 13%; in series [12], 0%.
Consider `CCc1[nH]c2nc(N)nc(O)c2c1Sc1cccc(Br)c1`, for which the IC50 at Thymidylate synthase [10] worked out at 1100 nM. Further, in series [23], the inhibition was 10%.
Molecule `CCc1[nH]c2nc(N)[nH]c(=O)c2c1Sc1cccc2ccccc12` yielded an IC50 against Thymidylate synthase [10] of 5600 nM.
As to `CCc1[nH]c2nc(N)nc(O)c2c1Sc1ccc([N+](=O)[O-])cc1`, the results for the 50% inhibitory concentration (IC50) at Thymidylate synthase [10] and at Thymidylate synthase [19] were 240 nM and 24000 nM, respectively. For the same molecule, the inhibition in series [24] turned out to be 33%.
Take `CCc1[nH]c2nc(N)nc(O)c2c1Sc1cc(C(F)(F)F)cc(C(F)(F)F)c1`: the inhibition stood at 0% in [25] and 18% on Thymidylate synthase [26].
On to `Cc1[nH]c2nc(N)[nH]c(=O)c2c1Sc1ccc(C(=O)N[C@@H](CCC(=O)O)C(=O)O)cc1`, for which the concentration for a half-maximal effect (EC50) in the series on CCRF-CEM [18] was 810 nM; in the series on CCRF-CEM [20] it was 450 nM. In series [21], the IC50 was 21000 nM.
As for `CCc1[nH]c2nc(N)nc(O)c2c1Sc1ccc(Br)cc1`, the figures for the inhibition in series [27] and in series [28] were 15% and 14%, respectively. For the same molecule, the half-maximal inhibitory concentration (IC50) against Thymidylate synthase [10] worked out at 1000 nM.
`CCc1[nH]c2nc(N)nc(O)c2c1Sc1ccc(Cl)c(Cl)c1` gave an inhibition in series [23] of 41%.

B1: Folylpolyglutamate synthase, mitochondrial (Homo sapiens), Q05932 (protein)
chain: MSRARSHLRAALFLAAASARGITTQVAARRGLSAWPVPQEPSMEYQDAVRMLNTLQTNAGYLEQVKRQRGDPQTQLEAMELYLARSGLQVEDLDRLNIIHVTGTKGKGSTCAFTECILRSYGLKTGFFSSPHLVQVRERIRINGQPISPELFTKYFWRLYHRLEETKDGSCVSMPPYFRFLTLMAFHVFLQEKVDLAVVEVGIGGAYDCTNIIRKPVVCGVSSLGIDHTSLLGDTVEKIAWQKGGIFKQGVPAFTVLQPEGPLAVLRDRAQQISCPLYLCPMLEALEEGGPPLTLGLEGEHQRSNAALALQLAHCWLQRQDRHGAGEPKASRPGLLWQLPLAPVFQPTSHMRLGLRNTEWPGRTQVLRRGPLTWYLDGAHTASSAQACVRWFRQALQGRERPSGGPEVRVLLFNATGDRDPAALLKLLQPCQFDYAVFCPNLTEVSSTGNADQQNFTVTLDQVLLRCLEHQQHWNHLDEEQASPDLWSAPSPEPGGSASLLLAPHPPHTCSASSLVFSCISHALQWISQGRDPIFQPPSPPKGLLTHPVAHSGASILREAAAIHVLVTGSLHLVGGVLKLLEPALSQ
As for B1, the Km result in [29] is listed as “Not Active”.
